# Measured values: patent US9283166B2, “Modulation of melanogenesis by modification of tyrosinase by palmitoylation” (ELC Management LLC, priority 2012, dated 2016)
# What was measured:
# tyrosinase [1] = test: Degradation of tyrosinase in cycloheximide-treated NHEM (WB); type: cell-based, human; conditions: 4 hours
# Procedure: NHEM were treated with 1 μg/ml cycloheximide, protein synthesis inhibitor, and with (▪) or without (⋄) 10 μM 2-BP for 4 hours. Tyrosinase levels were analyzed by WB using the mouse monoclonal anti-tyrosinase IgG antibody T311 (1:120 dilution). The band intensities of tyrosinase were normalized by the band intensities of Glyceraldehyde 3-phosphate dehydrogenase (GAPDH) as internal control for each condition. The results shown are the average of three determinations±SE.*p<0.05 vs. DMSO (FIGS. 5A and 5B).
# tyrosinase [2] = test: Ubiquitination of tyrosinase in NHEM (IP and WB); type: cell-based, human; conditions: 5 μM, 24 hours
# Procedure: NHEM were treated with 5 μM 2-BP for 24 hours. Equal protein amounts of cell lysate were used for IP by tyrosinase, and the ubiquitinated (UB) level of tyrosinase was analyzed by WB using anti-UB antibody.
# Tyrosinase mRNA = Tyrosinase mRNA by real time quantitative PCR in NHEM; type: cell-based, human; conditions: 6 or 24 hours
# Procedure: (§1) NHEM were cultured with 2-BP for 6 or 24 hours. Tyrosinase mRNA levels were analyzed by real time quantitative PCR. The results shown are the average of three determinations±SE.*p<0.05 vs. DMSO (FIG. 4A). NHEM were incubated with 5 μM 2-BP for 24 hours. Glycosidase digestion treatment by endo H and WB analysis on mature and immature form of tyrosinase were conducted by WB (FIG. 4B).
# tyrosinase [3] = test: Glycosylation of tyrosinase (endo H digestion and WB) in NHEM; type: cell-based, human; conditions: 5 μM, 24 hours
# Procedure: as §1
# [4] = tested on: Reconstructed human skin models (Asian type); test: Melanin content in reconstructed human skin model; type: cell-based; conditions: 25 μM, 17 days, vs. DMSO
# Procedure: (§2) NHEM were treated with indicated concentrations of 2-BP for 48 hours. Melanin content (closed bar) and cell number (open bar) were measured. Values are the average of three determinations±SE. *p<0.05 vs. DMSO. Macroscopic views of cell pellet were taken by digital camera (FIG. 3A). Reconstructed human skin models (Asian type) were incubated with 25 μM 2-BP for 17 days. Eumelanin (EM) and pheomelanin (PM) contents were determined and calculated by following formula. EM=PTCA*25, PM=4−AHP*9. Values are the average of three determinations±SE.*p<0.05 vs. DMSO. Macroscopic views of a human skin model after 17 days were taken by digital camera (FIG. 3B).
# tyrosinase [5] = test: Palmitoylated tyrosinase in NHEM by acyl-RAC and WB; type: cell-based, human; conditions: 24 hours, vs. DMSO
# Procedure: (§3) Normal human epidermal melanocytes (NHEM) were incubated with 2-bromopalmitate (2-BP) for 24 hours, and total tyrosinase was determined by Western-blot (WB) using the mouse monoclonal anti-tyrosinase IgG antibody T311 (1:120 dilution). Total tyrosinase protein level was normalized by tubulin. Palmitoylated tyrosinase was evaluated by acyl-RAC and WB. The results shown in FIGS. 2A and 2B, are the average of three determinations SE. *p<0.05 vs. DMSO.
# tyrosinase [6] = test: Total tyrosinase protein in NHEM by Western-blot; type: cell-based, human; conditions: 24 hours, various concentrations, vs. DMSO, normalized by tubulin
# Procedure: as §3
# NHEM = test: Melanin content in NHEM; type: cell-based, human; conditions: 48 hours, various concentrations, vs. DMSO
# Procedure: as §2
# NHEM (Asian) = test: Melanin synthesis in NHEM with PP2 or KA, with or without 2-BP; type: cell-based, human; conditions: 120 hours
# Procedure: NHEM (Asian) were incubated for 120 hours in the presence of PP2, with or without 2-BP. […] Mean±S.E. (N=3)*p<0.05, vs. control. Kojic Acid (KA) was used as a positive control.
# [7] = biological target: T1, Palmitoyl:protein thioesterase (PPT1) (Homo sapiens, UniProt P50897); conditions: cited from earlier work; for PPT1 inhibitory activity: result in words
# T1 sequence (P50897 28-306): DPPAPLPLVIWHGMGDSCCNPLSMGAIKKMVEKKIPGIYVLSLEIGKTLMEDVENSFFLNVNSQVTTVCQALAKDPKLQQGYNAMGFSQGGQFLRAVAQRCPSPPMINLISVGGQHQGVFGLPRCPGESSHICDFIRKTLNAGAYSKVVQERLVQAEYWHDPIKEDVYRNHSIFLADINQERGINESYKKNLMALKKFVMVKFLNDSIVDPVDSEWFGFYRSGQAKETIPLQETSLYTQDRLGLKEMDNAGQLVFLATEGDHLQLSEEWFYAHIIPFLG
molecule,measurement,setting,value
"CCCCCCCCCCCCCCC(Br)C(=O)O (stereo not drawn) [2-BP, 2-bromopalmitate]",degradation of tyrosinase,tyrosinase [1]; 10 μM with 1 μg/ml cycloheximide,suppresses the degradation of tyrosinase
same,ubiquitination of tyrosinase,tyrosinase [2],no effect
same,tyrosinase mRNA expression,Tyrosinase mRNA,decrease
same,glycosylation of tyrosinase,tyrosinase [3],no effect
same,total melanin: eumelanin (EM) and pheomelanin (PM) content of the tissue,[4],statistically significant increase
same,amount of palmitoylated tyrosinase,tyrosinase [5],decreased
same,total amount of tyrosinase protein per cell,tyrosinase [6],statistically significant increase
same,melanin content per cell,NHEM,statistically significant increase
"O=c1cc(CO)occ1O [Kojic acid, Kojic Acid]",melanin synthesis,NHEM (Asian); 2-BP-treated cells,mildly inhibited melanin synthesis
same,melanin synthesis,NHEM (Asian); cells not treated with 2-BP,mildly inhibited melanin synthesis
C[C@@H]1C[C@@H]([C@H](O)CC2CC(=O)NC(=O)C2)C(=O)[C@@H](C)C1 [cycloheximide],tyrosinase levels,tyrosinase [1]; 1 μg/ml cycloheximide,decreased
AcGDap(Palm)GGR7,PPT1 inhibitory activity,[7],strong PPT1 inhibitors
GGC(Pal) VKIKK [CS8],PPT1 inhibitory activity,[7],comparable inhibitory activity to CS38
NBD-αAGDap(Pal)VKIKK [CS38],inhibitor potency relative to Dap1,"[7]; PPT1 inhibition, compared with Dap1",3 fold
same,IC50,[7]; PPT1 inhibition,2 µM
